From patent US11517628B2, “Particles for spatiotemporal release of agents” (Yale University, priority 2018, dated 2022)

B1: free OVA: Ovalbumin, the model antigen, given soluble (protein, UniProt P01012 2-386, looked up)
Ovalbumin: GSIGAASMEFCFDVFKELKVHHANENIFYCPIAIMSALAMVYLGAKDSTRTQINKVVRFDKLPGFGDSIEAQCGTSVNVHSSLRDILNQITKPNDVYSFSLASRLYAEERYPILPEYLQCVKELYRGGLEPINFQTAADQARELINSWVESQTNGIIRNVLQPSSVDSQTAMVLVNAIVFKGLWEKAFKDEDTQAMPFRVTEQESKPVQMMYQIGLFRVASMASEKMKILELPFASGTMSMLVLLPDEVSGLEQLESIINFEKLTEWTSSNVMEERKIKVYLPRMKMEEKYNLTSVLMAMGITDVFSSSANLSGISSAESLKISQAVHAAHAEINEAGREVVGSAEAGVDAASVSEEFRADHPFLFCIKHIATNAVLFFGRCVSP

Tested on: bone marrow-derived dendritic cells (BMDCs)
Assay: BMDC surface marker expression by FACS
Format: cell-based, mouse
Protocol: Bone marrow-derived dendritic cells (BMDCs) were generated as described by Zanoni et al. Generation of mouse bone marrow-derived dendritic cells (BM-DCs) (2009). Briefly, bone marrow progenitor cells were isolated from the femur of C57BL/6J mouse and cultured with media containing 20 ng/ml of GM-CSF. Cells were replenished with fresh media after 5 days of culture and collected after 48 hours of media replenishment. Naïve CD4 T cells and T cells were collected from OT-II splenocytes by using naïve CD4 T cell or CD3 T cell isolation kit (STEMCELL Technologies), respectively.
When ready for flow cytometry (FACS) analysis, cells were transferred to a 96-well U-bottom plate and spun at 500 g for 5 minutes. […]
FACS was performed by either LSR-II (Becton Dickinson) or Attune NxT flow cytometer. […] All FACS data was analyzed on FlowJo software (Tree Star Inc., Ashland, Oreg.).
DCs are one of the best antigen presenting cells that express costimulatory molecules and present antigens, which are modulated by mTOR signaling and antigen processing, respectively. […] DCs from the bone marrow (BMDCs) were harvested and treated with 100 ng/ml of free RAPA or 2 μg/ml of free OVA for either 72 hours or for 24 hours and analyzed by FACS. In all following experiments, BMDCs were gated on CD11c+, live cells, and surface markers of BMDCs were analyzed by flow cytometry. […]

| Molecule | Expression of surface markers PD-L1, CD80, CD86, and MHC II (free RAPA 100 ng/ml, 72 hours compared to 24 hours) | Expression of surface markers PD-L1, CD80, CD86, and MHC II (free OVA 2 μg/ml, 72 hours vs 24 hours) |
| --- | --- | --- |
| CO[C@H]1C[C@@H]2CC[C@@H](C)[C@@](O)(O2)C(=O)C(=O)N2CCCC[C@H]2C(=O)O[C@H]([C@H](C)C[C@@H]2CC[C@@H](O)[C@H](OC)C2)CC(=O)[C@H](C)/C=C(\C)[C@@H](O)[C@@H](OC)C(=O)[C@H](C)C[C@H](C)/C=C/C=C/C=C/1C [free RAPA, Rapamycin] | diminished expression of surface markers |  |
| B1 |  | no differences were observed |
